Measured values: patent publication US20020006955A1, “Ginkgolides for inhibition of membrane expression of benzodiazepine receptors” (priority 1995, published 2002)

Assays:
[1] = test system: peripheral benzodiazepine receptor mRNA; experiment: mRNA expression of benzodiazepine receptor in adrenal tissue (RNA blot, PBR cDNA probe); design: species or system rat; conditions: adrenal tissue total RNA, densiometric analysis
Description: mRNA Expression of Benzodiazepine Receptor The ginkgolide induced decrease in mRNA expression of the benzodiazepine receptor was also confirmed. Total cellular RNA from adrenal tissue was isolated by the acid guanidinium thiocyanate-phenol-chloroform extraction method (Chomczynski, et al., Anal. Biochem. 162:156-159 (1987)) using the RNAzol B reagent (Tel-Test Inc., Friendswood, Texas, USA). RNA electrophoresis transfer, probe labelling, and membrane hybridization were performed as previously described in Dym, et al., Endocrinology 128:1167-1176 (1991). RNA was size-fractionated by electrophoresis and transferred to derivatized nylon membranes (Nytran Plus, Schleicher & Schuell, Keene, New Hampshire, USA). The blots were then hybridized against the [^32p] cDNA probe for PBR labelled by the random priming technique. The 781 base-pair probe for PBR mRNA used was prepared as previously described in Garnier, et al., Endocrinology 132:444-458 (1993). Screen enhanced autoradiography was performed by exposing Kodak X-OMAT AR films to the blots at −80° C for 48 hours. Densiometric analysis of the spots was performed as described above.

[2] = test system: corticosterone (a glucocorticoid in rats); experiment: Assay for determining the inhibition of glucocorticoids: serum corticosterone by radioimmunoassay; assay type: in vivo, Sprague-Dawley rats; conditions: 2 mg/kg intraperitoneally once daily for eight days; for CORTICOSTERONE: serum, control 161
Description: (§1) In each experiment, at least six rats per treatment group were used. After eight days of treatment, the rats were sacrificed.
(§2) The level of steroids in the rats was measured by radioimmunoassay from organic extracts of the collected serum. The levels of corticosterone (a glucocorticoid in rats) and testosterone were measured by radioimmunoassay using antibodies from Endocrine Sciences (Tarlana, Calif., USA) under conditions described by the supplier. The level of plasma ACTH was measured by radioimmunoassay using the method of Crousos, et al., New Engl. J. Med. 310:622 (1984). The level of aldosterone was measured by radioimmunoassay using a kit from Diagnostics Products Corp. (Los Angeles, Calif., USA).

plasma ACTH = experiment: Plasma ACTH by radioimmunoassay in treated rats; assay type: in vivo, Sprague-Dawley rats; conditions: 2 mg/kg intraperitoneally once daily for eight days; for ACTH: plasma, control 28.0
Description: as §1, §2

aldosterone = experiment: Serum aldosterone by radioimmunoassay in treated rats; assay type: in vivo, Sprague-Dawley rats; conditions: 2 mg/kg intraperitoneally once daily for eight days; for ALDOS-STERONE: serum, control 685
Description: as §1, §2

testosterone = experiment: Serum testosterone by radioimmunoassay in treated rats; assay type: in vivo, Sprague-Dawley rats; conditions: 2 mg/kg intraperitoneally once daily for eight days; for TESTOSTERONE: serum, control 4.50
Description: as §1, §2

[3] = target: 18 Kd peripheral benzodiazepine receptor protein; experiment: Benzodiazepine radioligand binding assay ([3H]PK 11195) in adrenal mitochondria; design: species or system rat
Description: See, Garnier, et al., Endocrinology 132:444 (1993). Mitochondria were prepared as described in Krueger, et al., J. Biol. Chem. 265:15015 (1990). Mitochondria ([…] of protein) were resuspended in phosphate buffered saline (PBS) and [^3H]PK 11195 (New England Nuclear, Wilmington, Del., USA). Binding studies were performed at 4° C. in a final incubation volume of 0.3 ml, using radioligand in the concentration range of 0.019-20.00 nM and 200 fold excess of unlabeled PK 11195 (Research Biochemicals, Natick, Mass., USA), as described in Garnier, et al., Endocrinology 132:444 (1993) and Garnier, et al., Mol. Pharm. 45:201 (1994). After 120 min. incubation time, the assay was stopped by filtration through Whatman GF/C filters and washed with 15 ml ice-cold PBS. Radioactivity trapped on the filters were determined by liquid scintillation counting at 50% counting efficiency. The dissociation constant (Kd) and the number of binding sites (Bmax) were determined by […] analysis of the data using the ligand™ program (Kell, V.4.0, Biosoft, Inc.). See Munson, et al., Anal. Biochem. 107:220 (1980).

Row | Structure (SMILES) | reduction of peripheral benzodiazepine receptor mRNA expression [1] [%] | effect on the level of corticosterone in the rats [2] | CORTICOSTERONE [2] [ng/mL] | effect on ACTH release (plasma ACTH) | ACTH (plasma ACTH) [pg/mL] | effect on serum levels of aldosterone (aldosterone) | ALDOS-STERONE (aldosterone) [pg/mL] | effect on serum levels of testosterone (testosterone) | TESTOSTERONE (testosterone) [ng/mL] | Kd ([3]; dissociation constant of radioligand [3H]PK 11195 in adrenal mitochondria after treatment with the substance, 4° C., 120 min, control 1.7) [nM] | decrease of expression of the 18 Kd peripheral benzodiazepine receptor protein ([3]; from Bmax versus control, adrenal mitochondria) [%] | Bmax ([3]; number of [3H]PK 11195 binding sites in adrenal mitochondria after treatment with the substance, control 11.2) [pmol/mg]
1 | CC1C(=O)OC2C(O)C34C5CC(C(C)(C)C)C36C(OC(=O)C6O)OC4(C(=O)O5)C12O (centres unmarked) [Ginkgolide B, ginkgolide B] | 85 | decrease | 75 | increase ACTH release | 71.4 | unaffected | 893 | unaffected | 4.50 | – | – | –
2 | C[C@@H]1C(=O)O[C@H]2C[C@@]34[C@H]5C[C@@H](C(C)(C)C)[C@]36[C@@H](OC(=O)[C@@H]6O)O[C@@]4(C(=O)O5)[C@]21O [Ginkgolide A, ginkgolide A] | – | decrease | 66 | increase ACTH release | 103 | unaffected | 638 | unaffected | 4.75 | 1.3 | 50 | 5.6
